# Assay results from patent US6903118B1, “Piperazinyl-substituted pyridylalkane, alkene and alkine carboxamides” (Klinge Pharma GmbH, priority 1997, dated 2005).
row,Structure (SMILES),melting point [°C]
1,"O=C(C=Cc1cccnc1)NCCCCN1CCN(c2ccccc2-c2ccccc2)CC1 [Substance 68, N-[4-(4-biphenyl-2-yl-piperazin-1-yl)-butyl)-3-pyridin-3-yl-acrylamide]",115
2,"O=C(C=Cc1cccnc1)NCCCCN1CCN(c2cccc3c2CCCC3)CC1 [Substance 94, 3-pyridin-3-yl-N-[4-(4-{5,6,7,8-tetrahydro-naphthalin-1-yl}-piperazin-1-yl)-butyl]-acrylamide]",108 to 109
3,"O=C(C=Cc1cccnc1)NCCC(O)CN1CCN(C(c2ccccc2)c2ccccc2)CC1 (stereo not shown) [Substance 29, N-[4-(4-diphenylmethyl-piperazin-1-yl)-3-hydroxy-butyl]-3-pyridin-3-yl-acrylamide]",168 to 171
4,"O=C(C=Cc1cccnc1)NCCCCN1CCN(C2CCCc3ccccc32)CC1 (stereo not shown) [Substance 87, 3-pyridin-3-yl-N-{4-[4-(1,2,3,4-tetrahydronaphthalin-1-yl)-piperazin-1-yl]-butyl}-acrylamide]",110 to 114
5,"O=C(C=Cc1cccnc1)NCCCS(=O)(=O)N1CCN(C(c2ccccc2)c2ccccc2)CC1 [Substance 32, N-[3-(4-diphenylmethyl-piperazin-1-yl-sulfonyl)-propyl]-3-pyridin-3-yl-acrylamide]",167 to 168
6,"O=C(C=Cc1cccnc1)NCCN1CCN(S(=O)(=O)c2ccc3ccccc3c2)CC1 [Substance 227, N-{2-[4-(naphthalin-2-yl-sulfonyl)-piperazin-1-yl]-ethyl}-3-pyridin-3-yl-acrylamide]",183 to 184
7,"O=C(C=Cc1cccnc1)NOCCCN1CCN(C(c2ccccc2)c2ccccc2)CC1 [Substance 30, N-[3-(4-diphenylmethylpiperazin-1-yl)-propoxy]-3-pyridin-3-yl-acrylamide]",115 to 117
